Test results published in article PMC11385693, “Synthesis of ferrocenyl benzimidazole derivatives as novel anti-Toxoplasma gondii agents” (New Journal of Chemistry, 2024).
“And” between values parts separate entries of the source, which are not always exact repeats. Identical values can stand only once. Like-named read-outs stand apart in the source and are kept apart here.

Experiments:
[1] = Turbidimetric solubility assay; details: for solubility at 2 h: kinetic from dmso stock
Experimental: A single phosphate buffered saline (PBS) tablet (Sigma Aldrich) was dissolved in 200 mL of distilled water (dH2O) (25 °C) to obtain a PBS solution with 0.01 M phosphate buffer, 0.14 M NaCl and 0.003 M KCl.
Stock solutions of the compounds to be tested were prepared in DMSO at a concentration of 10 mM and filtered through syringe filters. Serial dilution of the stock solutions with DMSO was then carried out in a preparatory (prep) 96-well plate giving concentrations between 0.00 and 10.0 mM (0.00, 0.25, 0.50, 1.0, 2.0, 4.0, 8.0 and 10 mM). The solutions were then further diluted into 96-well assay plates containing DMSO, PBS or HEPES buffer by pipetting 4.00 μL of solution from the prep plate to the Assay plate containing 196 μL of DMSO or buffer, giving final concentrations between 0.00 and 200 μM (0.00, 5.00, 10.0, 20.0, 40.0, 80.0, 160 and 200 μM). The assay plates were incubated at 25.0 or 37.0 °C for two hours before their UV-vis absorbance was read at 620 nm with a SPECTROstar Nano microplate reader spectrophotometer. Blank readings were used to gain corrected readings by subtracting them from obtained absorbances for each compound concentration.

[2] = Aqueous stability studies (UV-vis monitoring, ESI-MS follow-up); assay type: physicochemical; details: for Change of UV-vis spectrum over time (aqueous stability): PBS pH 7.4, HEPES pH 7.0 and acetate buffer pH 4.6, 37 °C, 18 hours, 50 μM
Experimental: The stability of complexes 14–17 in an aqueous environment was investigated. The stability experiments were performed in PBS (pH 7.4) and HEPES (pH 7.0) buffers, as well as in acidic acetate buffer (pH 4.6), by monitoring the UV-vis spectra of the compounds at 37 °C over an 18-hour period.
To further investigate the stability of 14, the PBS, HEPES and acetate buffer solutions were evaporated to dryness, and then analysed using electrospray ionisation mass spectrometry in the positive ionisation mode.
PBS and HEPES buffers were prepared as described above. An acetate buffer with a concentration of […] and a pH of 4.60 was prepared by dissolving 5.40 g (65.83 mmol) of sodium acetate in 50 mL of dH2O. The resulting solution was then titrated to a pH of 4.60 with glacial acetic acid and made up to 100 mL with dH2O.
1 mM stock solutions of the synthesised target compounds in MeOH were prepared. 1.90 mL of buffer (PBS, HEPES or acetate buffer) was pipetted into cuvettes followed by the addition 100 μL of test compound stock solutions, diluting them to a final concentration of 50 μM. The cuvettes were then stoppered, inverted to mix the solution, and placed in an Agilent Cary 3500 UV-vis spectrophotometer as fast as possible. Blank solutions in matched cuvettes were also prepared by adding 100 μL of MeOH to 1.9 mL of buffer. The solutions in all the cuvettes were stirred at 400 rpm ensure proper mixing. UV spectra were then recoded every 5 minutes for 18 hours with a spectral width of 200–1100 nm to monitor the stability of the test compounds.

[3] = Cyclic voltammetry; assay type: physicochemical
Source text: Ferrocene is known to undergo reversible oxidation and reduction, cycling between its 3^+ ferrocenium and the 2^+ ferrocene (Fc) states.[49,50] This redox behaviour leads to the generation of reactive oxygen species (ROS) through Fenton like reactions, which can in turn lead to parasite death.[51–53] Cyclic voltammetry was used to determine if the synthesised ferrocenyl derivatives had the potential to have an impact on the redox status of the parasite cells. Two different scan rates (25 and 90 mV s^−1) were used to ensure the reliability of the results, compared to ferrocene alone.

[4] = tested on: RhΔKu80:mNeonGreen strain of T. gondii; test: microbe, parasite or virus in culture; assay type: cell-based, Toxoplasma gondii
Experimental: Growth inhibition assays were carried out using the RhΔKu80:mNeonGreen strain of T. gondii, which expresses the mNeonGreen fluorescent protein.[56] Parasite growth inhibition was determined by measuring the fluorescence emission of parasite growth in increasing concentrations of compounds of interest.
T. gondii ΔKu80:mNeon tachyzoites were grown in human foreskin fibroblasts (HFFs) with Dulbecco's modified Eagle's medium (DMEM) supplemented with 3% heat inactivated foetal bovine serum (D3) as the culturing medium. Cells and parasites were maintained at 37 °C and 5% carbon dioxide (CO2).
EC50s were calculated as previously described.[56] Briefly, T. gondii ΔKu80:mNeon parasites were counted by haemocytometer and diluted to 25 000 parasites per mL in 40 mL of D3 media, to give an infection of 5000 parasites per well. The media from a black clear bottomed 96 well plate containing HFFs was then aspirated. 200 μL of uninfected D3 media was added to the top and bottom rows of wells (A and H) to serve as blanks. 200 μL of T. gondii containing D3 media was then added to the remaining wells. The parasites were allowed 2 hours to invade host cells, after which test compounds were added.
The media from the infected 96 well plates was then aspirated and 100 μL of D3 media added to each well, excluding column 12. The first 4 wells of column 12 were filled with 300 μL of drug supplemented D3 media, while the next 4 wells were filled with 300 μL of D3 media supplemented with a different drug. The drug supplemented D3 media was then serially diluted 1 : 3 across the plate, stopping at column 2 and disposing of the media, leaving all wells with 100 μL of media. Finally, the plates were closed and incubated at 37 °C with 5% CO2 for 4 days. After 4 days the fluorescence of each well on the plates was read at 594 nm emission using a PHERAstar FS microplate reader. Graphpad Prism 9 software was used to plot dose–response and determine inhibition of parasite growth.

[5] = tested on: T. gondii parasites; test: Determination of ROS formation by FACS (CellROX deep red); assay type: cell-based, Toxoplasma gondii; details: 66 μM, 18 hours, compared with untreated parasites
Experimental: Once it had been established that two of the synthesised ferrocenyl benzimidazole derivatives were biologically active, their potential mode of action was explored. Given the presence of the ferrocenyl moiety, and the cyclic voltammetry results, it was of interest to investigate whether the compounds induce ROS, which may provide an explanation for their anti-parasitic activity. Thus, cells heavily infected with parasites were incubated with target compounds for 18 hours, before isolating the parasites and staining them with CellRox deep red reagent. CellRox is an oxidation sensitive dye which is non-fluorescent in its reduced state but fluoresces bright red at 665 nm upon being oxidised by ROS. FACS was then used to quantify CellROX parasite florescence.[56] Parasites were incubated with ferrocene carboxylic acid (FcCOOH), and untreated parasites were used as controls.
6 cm dishes of host cells heavily infected with T. gondii were untreated or treated with 66 μM (second highest concentration used in growth inhibition assays) of test compounds for 18 hours. The dishes were then scratched and syringed, before filtering the solution into 10 mL falcon tubes to remove cell debris. The tubes were spun down for 10 minutes at 1500 rpm. The media was then removed from the tubes, and the pellet resuspended in 200 μL of PBS buffer. For each drug, 100 μL of the resuspended pellet was then placed into 2 FACS tubes, one which would then be stained with CellROX dye, and the other 100 μL of PBS added to act as an unstained control. A 1 : 125 dilution of CellROX stock solution was performed, and 100 μL of this solution added to the FACS tubes needing staining. Stained tubes were incubated at 37 °C for at least 15 min before analysis on a BD Celesta flow cytometer. Data was obtained using FACSDiva software with parasites being gated on forward scatter, side scatter and green fluorescence. FlowJo v10 software was used to plot the geometric mean of CellRox fluorescence from at least 5000 parasites on the Cy7 channel.

[6] = tested on: HEK293T cell line; details: 25 μM, MTT 48 hours
Experimental: Human prostatic epithelial cells (PNT1A) were cultured in Rosewell Park Memorial Institute (RPMI) media supplemented with 10% heat inactivated FBS. Both cell lines were incubated at 37 °C with 5% CO2. Both cell lines were obtained from ATCC.
The cells were allowed to recover overnight before the addition of compounds.
Stock solutions of the test compounds in DMSO were prepared and serially diluted in DMSO in a 96 well plate. […] 10 μL of the test compounds in media was then pipetted into the plates containing cells in triplicate. The cells were then incubated with the test compounds for 48 hours. After incubation, 10 μL of previously prepared MTT reagent was added to each well followed by incubation of the plates for 4 hours. 100 μL of solubilising agent was then pipetted into each well, and the plates incubated overnight. After overnight incubation the plates were read using a BioTek SYNERGY HTX multimode plate reader at 595 nm. Graphpad Prism 9 software was used to plot dose–response and determine cell viability.

[7] = T. gondii ΔKu80:mNeon in HFFs, 4 days, highest concentration 100 μM, NA = not active at the maximum tested concentration, three biological replicates in triplicate, read-out: EC50
[8] = T. gondii ΔKu80:mNeon in HFFs, 4 days, highest concentration 100 μM, NA = not active at the maximum tested concentration, three biological replicates in triplicate

| SMILES | Solubility range ([1]; HEPES (pH 7.0), 25 °C) | Solubility class ([1]; HEPES (pH 7.0), 37 °C) | Solubility range ([1]; HEPES (pH 7.0), 37 °C) | Solubility range ([1]; PBS (pH7.4), 25 °C) | Solubility range ([1]; PBS (pH7.4), 37 °C) | Change of UV-vis spectrum over time (aqueous stability) [2] | E 1/2 ([3]; Run1, scan rate 25 mV s^−1) | ΔEp ([3]; Run1, scan rate 25 mV s^−1) | E 1/2 ([3]; Run2, scan rate 90 mV s^−1) | ΔEp ([3]; Run2, scan rate 90 mV s^−1) | ROS formation in treated parasites (CellRox red fluorescence) [5] | also measured |
| --- | --- | --- | --- | --- | --- | --- | --- | --- | --- | --- | --- | --- |
| O=C(NCCn1c(-c2ccccc2)nc2ccccc21)[c-]1cccc1.[Fe+2].c1cc[cH-]c1 [Compound 14] | 20-40 µM and 9-18 µg/mL | poor (solubility <10 μg mL^−1 are considered to have poor solubility) | 5-10 µM and 2–4 µg/mL | 10-20 µM and 4-9 µg/mL | 10-20 µM and 4-9 µg/mL | showed reduced intensity over time | 638 mV | 89 mV | 641 mV | 75 mV | – | Stability in buffer by ESI-MS of evaporated buffer solutions ([2]; PBS, HEPES and acetate buffer, molecular ion peak present): remained intact and was stable |
| O=C(NCCn1cnc2ccccc21)[c-]1cccc1.[Fe+2].c1cc[cH-]c1 [Compound 15] | 10-20 µM and 4-7 µg/mL | moderate (a solubility of 10–60 μg mL^−1 is considered moderate) | 20-40 µM and 7–15 µg/mL | 10-20 µM and 4-7 µg/mL | 10-20 µM and 4-7 µg/mL | remained unchanged | 653 mV | 105 mV | 643 mV | 78 mV | triggered the formation of ROS | EC50 [4, 7]: 17.9 µM; Cell survival / % cell viability [6]: 50% |
| O=C(NCCn1cnc2ncccc21)[c-]1cccc1.[Fe+2].c1cc[cH-]c1 [Compound 16] | 20-40 µM and 7-15 µg/mL | poor (solubility <10 μg mL^−1 are considered to have poor solubility) | 10-20 µM and 4–7 µg/mL | 10-20 µM and 4-7 µg/mL | 10-20 µM and 4-7 µg/mL | remained unchanged | 632 mV | 99 mV | 642 mV | 69 mV | not | – |
| O=C(O)[c-]1cccc1.[Fe+2].c1cc[cH-]c1 [FcCOOH, ferrocene carboxylic acid, reference compound] | – | – | – | – | – | – | 688 mV | 89 mV | 689 mV | 71 mV | only showed slightly more ROS present than untreated parasites | EC50 [4, 8]: no activity |
| COC(=O)[C@H]1[C@H]2C[C@@H]3c4[nH]c5cc(OC)ccc5c4CCN3C[C@H]2C[C@@H](OC(=O)c2cc(OC)c(OC)c(OC)c2)[C@@H]1OC [Reserpine, reference compound] | – | – | – | – | – | – | – | – | – | – | – | solubility at 2 h ([1]; HEPES buffer, 25 °C, pH 7, aqueous buffer): < 5 µM and < 3 µg/mL; solubility at 2 h ([1]; HEPES buffer, 37 °C, pH 7, aqueous buffer): < 5 µM and < 3 µg/mL; solubility at 2 h ([1]; PBS buffer, 25 °C, pH 7.4, aqueous buffer): < 5 µM and < 3 µg/mL; solubility at 2 h ([1]; PBS buffer, 37 °C, pH 7.4, aqueous buffer): < 5 µM and < 3 µg/mL |
| Nc1ccc(S(=O)(=O)Nc2ncccn2)cc1 [Sulfadiazine] | – | – | – | – | – | – | – | – | – | – | – | EC50 ([4]; Toxoplasma gondii, 96 h): 2.56 µM |
| O=C(Cl)[c-]1cccc1.[Fe+2].c1cc[cH-]c1 [FcCOCl] | – | – | – | – | – | – | – | – | – | – | – | EC50 [4, 8]: no activity |
| CCc1nc(N)nc(N)c1-c1ccc(Cl)cc1 [Pyrimethamine] | – | – | – | – | – | – | – | – | – | – | – | EC50 [4, 7]: 13.8 µM; EC50 ([4]; Toxoplasma gondii, 96 h, T. gondii ΔKu80:mNeon in HFFs, 4 days, highest concentration 100 μM, NA = not active at the maximum tested concentration, three biological replicates in triplicate, read-out: EC50): 13.8 µM |
| [Fe+2].c1cc[cH-]c1.c1cc[cH-]c1 [Fc, ferrocene, reference compound] | – | – | – | – | – | – | 451 mV | 108 mV | 453 mV | 83 mV | – | – |
